“And” between values parts separate entries of the source, which are not always exact repeats. Identical values can stand only once.
Assays:
[1] = test system: T1, UGT enzymes of human liver microsomes; assay: Kinetic and Ki studies of inhibitors of 7-HFC glucuronidation in human liver microsomes; assay type: biochemical; details: 7-HFC 20-500 μM
T1 construct: percentage of control metabolism, 7-HFC glucuronidation; percentage of control metabolism, 7-HFC glucuronidation

[2] = target: T2, UGT1A1 (Homo sapiens, UniProt P22309); assay: Inhibition of raloxifene glucuronidation by recombinant UGT1A1 Supersomes; details: human; for activity at 15 min, 2 μM: inhibitor 2 μM; for activity at 15 min, 5 µM: inhibitor 5 μM; for activity at 15 min, 10 µM: inhibitor 10 μM; for activity at 15 min, 25 µM: inhibitor 25 μM; for activity at 15 min, 50 µM: inhibitor 50 μM
T2 sequence (P22309 26-533): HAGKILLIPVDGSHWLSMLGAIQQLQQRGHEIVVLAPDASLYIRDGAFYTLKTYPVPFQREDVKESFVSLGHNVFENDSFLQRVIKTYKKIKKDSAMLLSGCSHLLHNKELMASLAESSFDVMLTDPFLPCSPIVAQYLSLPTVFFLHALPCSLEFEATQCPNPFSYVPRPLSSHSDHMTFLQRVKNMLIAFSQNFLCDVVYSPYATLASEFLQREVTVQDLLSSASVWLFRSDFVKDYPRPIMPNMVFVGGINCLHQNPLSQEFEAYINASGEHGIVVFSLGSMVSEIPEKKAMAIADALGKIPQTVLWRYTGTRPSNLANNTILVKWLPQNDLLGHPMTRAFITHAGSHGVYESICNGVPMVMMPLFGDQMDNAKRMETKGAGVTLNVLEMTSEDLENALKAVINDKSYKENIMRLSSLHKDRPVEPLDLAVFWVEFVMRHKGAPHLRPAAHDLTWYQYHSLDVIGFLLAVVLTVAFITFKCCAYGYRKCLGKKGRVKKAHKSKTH
Experimental: (§1) Compounds were eluted using a binary solvent gradient system. Solvent A was water brought to pH 8 with NH4OH. Solvent B was methanol. Solvent flow rate was 1 ml/min and the column temperature was maintained at 50° C. Detection was at 280 nm. […] The system was then returned to the initial conditions and equilibrated for 3 min.

[3] = test system: UGT enzymes of pooled human jejunum microsomes; assay: Inhibition of 2ME2 glucuronidation (MG1) in pooled human jejunum microsomes; assay type: biochemical; details: jejunum HJ61, 2ME2 50 μM
Excerpt: Compounds were eluted using a binary solvent gradient system where solvent A was dilute phosphoric acid (pH 3) and solvent B was 80:20 acetonitrile-methanol. […] Detection was at 280 nm.

[4] = target: T3, UGT enzymes of human liver microsomes (Homo sapiens, UniProt P16662); assay: Inhibition of zidovudine glucuronidation in human liver microsomes; assay type: biochemical; details: liver lot 062101
T3 construct: residual metabolism (percentage of control), zidovudine glucuronidation; other: liver lot 062101; residual metabolism (percentage of control), zidovudine glucuronidation; residual metabolism (percentage of control)
T3 sequence (P16662 1-529): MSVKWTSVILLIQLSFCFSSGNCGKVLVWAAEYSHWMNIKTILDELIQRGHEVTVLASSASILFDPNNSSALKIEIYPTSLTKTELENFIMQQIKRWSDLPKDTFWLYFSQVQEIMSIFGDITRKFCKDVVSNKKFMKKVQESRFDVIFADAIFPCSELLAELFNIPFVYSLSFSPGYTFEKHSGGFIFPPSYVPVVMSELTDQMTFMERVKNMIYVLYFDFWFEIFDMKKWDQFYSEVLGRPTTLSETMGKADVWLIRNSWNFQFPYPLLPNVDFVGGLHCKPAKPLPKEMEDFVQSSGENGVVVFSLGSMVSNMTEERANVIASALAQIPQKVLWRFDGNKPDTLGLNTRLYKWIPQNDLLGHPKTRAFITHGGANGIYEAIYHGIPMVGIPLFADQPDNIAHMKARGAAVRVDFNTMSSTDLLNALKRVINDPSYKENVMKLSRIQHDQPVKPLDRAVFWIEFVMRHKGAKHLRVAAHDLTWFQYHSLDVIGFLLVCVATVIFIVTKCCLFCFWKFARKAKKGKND
Experimental: Compounds were eluted using a binary solvent gradient system where solvent A was dilute phosphoric acid (pH 3) and solvent B was acetonitrile.
Standardized incubations utilized 500 μM zidovudine substrate, 1 mg/ml microsomal protein, 5 mM UDPGA and a 30 min incubation time. […] Int.

[5] = target: T4, UGT1A8 (Homo sapiens, UniProt Q9HAW9); assay: Inhibition of raloxifene glucuronidation by recombinant UGT1A8 Supersomes; details: human, Supersomes with recombinant human UGT1A8, pH 7.5, probe raloxifene 50 μM, inhibitor 10 μM
T4 sequence (Q9HAW9 26-530): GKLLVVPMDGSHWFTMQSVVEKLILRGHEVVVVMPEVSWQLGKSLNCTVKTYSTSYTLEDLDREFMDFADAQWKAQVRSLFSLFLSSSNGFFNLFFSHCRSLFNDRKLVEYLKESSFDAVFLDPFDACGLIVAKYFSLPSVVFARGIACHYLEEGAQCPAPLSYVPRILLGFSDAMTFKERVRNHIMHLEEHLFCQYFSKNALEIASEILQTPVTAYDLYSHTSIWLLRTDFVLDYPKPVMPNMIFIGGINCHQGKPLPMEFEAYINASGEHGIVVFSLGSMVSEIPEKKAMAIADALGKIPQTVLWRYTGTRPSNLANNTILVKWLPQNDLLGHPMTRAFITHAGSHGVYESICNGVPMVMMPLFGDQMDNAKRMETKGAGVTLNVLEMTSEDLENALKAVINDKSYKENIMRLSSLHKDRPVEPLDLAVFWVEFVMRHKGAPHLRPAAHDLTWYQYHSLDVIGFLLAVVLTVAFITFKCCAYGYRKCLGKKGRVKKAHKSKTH
Experimental: as §1

[6] = Supersomes with recombinant human UGT1A1, pH 7.5, probe raloxifene 50 μM, formation of glucuronide G1, % of control metabolism, raloxifene G1, UGT1A1
[7] = Supersomes with recombinant human UGT1A1, pH 7.5, probe raloxifene 50 μM, formation of glucuronide G1, Inhibition of raloxifene glucuronidation, G1, UGT1A1, G1, raloxifene 50 μM, 250 μg/ml Supersomes, 1 mM UDPGA, 15 min
[8] = Supersomes with recombinant human UGT1A1, pH 7.5, probe raloxifene 50 μM, formation of glucuronide G2, % of control metabolism, raloxifene G2, UGT1A1
[9] = recombinant UGT1A1 Supersomes, pH 7.5, probe raloxifene 50 μM (formation of glucuronide G1), Inhibition of raloxifene glucuronidation, G1, UGT1A1, G1, raloxifene 50 μM, 250 μg/ml Supersomes, 1 mM UDPGA, 15 min
[10] = recombinant UGT1A1 Supersomes, pH 7.5, probe raloxifene 50 μM (formation of glucuronide G2), Inhibition of raloxifene glucuronidation, G2, UGT1A1, G2, raloxifene 50 μM, 250 μg/ml Supersomes, 1 mM UDPGA, 15 min

Compound: O=C(OC[C@H]1O[C@@H](OC(=O)c2cc(O)c(O)c(OC(=O)c3cc(O)c(O)c(O)c3)c2)[C@H](OC(=O)c2cc(O)c(O)c(OC(=O)c3cc(O)c(O)c(O)c3)c2)[C@@H](OC(=O)c2cc(O)c(O)c(OC(=O)c3cc(O)c(O)c(O)c3)c2)[C@@H]1OC(=O)c1cc(O)c(O)c(OC(=O)c2cc(O)c(O)c(O)c2)c1)c1cc(O)c(O)c(OC(=O)c2cc(O)c(O)c(O)c2)c1 [Tannic acid]
- Vmax of 7-HFC glucuronidation (fit of the experiment with this inhibitor) [1]: 57 ± 3 nmol/min/mg
- Km ([1]; read-out: Km of 7-HFC glucuronidation (fit of the experiment with this inhibitor)): 85 ± 7 µM
- activity at 15 min ([2]; Supersomes with recombinant human UGT1A1, pH 7.5, probe raloxifene 50 μM, formation of glucuronide G1): 17%
- activity at 15 min, 2 μM [2, 6]: 71%
- activity at 15 min, 5 µM [2, 6]: 39%
- activity at 15 min, 10 µM [2, 6]: 17%
- activity at 15 min, 25 µM [2, 6]: 4%
- activity at 15 min, 50 µM [2, 6]: 0.4%
- activity at 15 min, 25 µM [2, 7]: 4%
- activity at 15 min, 50 µM [2, 7]: 0.4%
- activity at 15 min, 2 μM [2, 8]: 71%
- activity at 15 min, 5 µM [2, 8]: 38%
- activity at 15 min, 10 µM [2, 8]: 17%
- activity at 15 min, 25 µM [2, 8]: 8%
- activity at 15 min, 50 µM [2, 8]: 0.9%
- activity at 15 min, 2 μM [2, 9]: 71%
- activity at 15 min, 5 µM [2, 9]: 39%
- activity at 15 min ([2]; recombinant UGT1A1 Supersomes, pH 7.5, probe raloxifene 50 μM (formation of glucuronide G2)): 17%
- activity at 15 min, 2 μM [2, 10]: 71%
- activity at 15 min, 5 µM [2, 10]: 38%
- activity at 15 min, 25 µM [2, 10]: 8%
- activity at 15 min, 50 µM [2, 10]: 0.9%
- residual metabolism (% of control), 2ME2 MG1 ([3]; inhibitor 2 μM): 63 (1) %
- residual metabolism (% of control), 2ME2 MG1 ([3]; inhibitor 5 μM): 49 (1) %
- residual metabolism (% of control), 2ME2 MG1 ([3]; inhibitor 10 μM): 42 (1) %
- residual metabolism (% of control), 2ME2 MG1 ([3]; inhibitor 25 μM): 5 (0) %
- residual metabolism (% of control), 2ME2 MG1 ([3]; inhibitor 50 μM): <LOQ
- residual metabolism (percentage of control), zidovudine glucuronidation ([4]; inhibitor 50 μM): 54 (2) % and 50 (4) %
- residual metabolism (percentage of control), zidovudine glucuronidation ([4]; inhibitor 100 μM): 42 (2) % and 37 (4) %
- residual metabolism (percentage of control), zidovudine glucuronidation ([4]; inhibitor 200 μM): 20 (2) %
- activity at 15 min, 10 µM ([5]; formation of glucuronide G1, % of control metabolism, raloxifene G1, UGT1A8): 73%
- activity at 15 min, 10 µM ([5]; formation of glucuronide G2, % of control metabolism, raloxifene G2, UGT1A8): 75%
